Laboratory results: patent publication US9951063B2, “8-(piperazin-1-yl)-1,2,3,4-tetrahydro-isoquinoline derivatives” (IDORSIA PHARMACEUTICALS LTD, priority 2014, dated 2018)

Biological target: human CXCR3A (Homo sapiens (Human), UniProt P49682)
Assay: FLIPR assay (inhibition of CXCL10-induced calcium signal)
Format: cell-based
Settings: engineered CHO-K1 cells expressing human CXCR3A coupled to Galpha(16); Fluo-4-AM; CXCL10 agonist 20 nM; mean values where determined several times
In short: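 CHO-K1 cells expressing human CXCR3A coupled to Gα16 were loaded with Fluo-4-AM for 1 h in HBSS/20 mM Hepes pH 7.4 with probenecid. Compound was added, then CXCL10 (20 nM as dispensed). Baseline-subtracted peak fluorescence gave inhibition curves and IC50, averaged over repeats.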

Sequence of human CXCR3A (P49682 whole entry): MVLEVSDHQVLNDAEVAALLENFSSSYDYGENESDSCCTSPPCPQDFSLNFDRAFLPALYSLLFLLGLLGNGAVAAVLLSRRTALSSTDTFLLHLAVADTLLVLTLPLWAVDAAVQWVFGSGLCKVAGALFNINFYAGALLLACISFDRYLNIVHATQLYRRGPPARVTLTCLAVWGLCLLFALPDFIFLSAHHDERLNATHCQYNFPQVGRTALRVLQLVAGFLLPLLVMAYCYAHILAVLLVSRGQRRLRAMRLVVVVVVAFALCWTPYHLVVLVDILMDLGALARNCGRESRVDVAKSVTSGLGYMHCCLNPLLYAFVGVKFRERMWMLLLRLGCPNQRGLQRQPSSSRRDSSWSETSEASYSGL

Compound	IC50 [nM]
COc1cncc(N2CCc3cccc(N4CCN(C(=O)Cn5cnc6cccnc65)[C@H](C)C4)c3C2)n1 [Example 120, 2-Imidazo[4,5-b]pyridin-3-yl-1-{(R)-4-[2-(6-methoxy-pyrazin-2-yl)-1,2,3,4-tetrahydro-isoquinolin-8-yl]-2-methyl-piperazin-1-yl}-ethanone]	2.03
COc1nc(OC)nc(N2CCc3cccc(N4CCN(C(=O)Cn5cnc6cccnc65)[C@H](C)C4)c3C2)n1 [Example 121, 1-{(R)-4-[2-(4,6-Dimethoxy-[1,3,5]triazin-2-yl)-1,2,3,4-tetrahydro-isoquinolin-8-yl]-2-methyl-piperazin-1-yl}-2-imidazo[4,5-b]pyridin-3-yl-ethanone]	3.39
COc1nccc(N2CCc3cccc(N4CCN(C(=O)Cn5cnc6cccnc65)[C@H](C)C4)c3C2)n1 [Example 122, 2-Imidazo[4,5-b]pyridin-3-yl-1-{(R)-4-[2-(2-methoxy-pyrimidin-4-yl)-1,2,3,4-tetrahydro-isoquinolin-8-yl]-2-methyl-piperazin-1-yl}-ethanone]	27.9
CCOc1ncc(N2CCc3cccc(N4CCN(C(=O)Cn5cnc6cccnc65)[C@H](C)C4)c3C2)cn1 [Example 123, 1-{(R)-4-[2-(2-Ethoxy-pyrimidin-5-yl)-1,2,3,4-tetrahydro-isoquinolin-8-yl]-2-methyl-piperazin-1-yl}-2-imidazo[4,5-b]pyridin-3-yl-ethanone]	4.71
C[C@@H]1CN(c2cccc3c2CN(c2nc(-c4ccccc4)cs2)CC3)CCN1C(=O)Cn1cnc2cccnc21 [Example 124, 2-Imidazo[4,5-b]pyridin-3-yl-1-{(R)-2-methyl-4-[2-(4-phenyl-thiazol-2-yl)-1,2,3,4-tetrahydro-isoquinolin-8-yl]-piperazin-1-yl}-ethanone]	34.4
Cc1nc(C)n(CC(=O)N2CCN(c3cccc4c3CN(c3cnc(C(F)(F)F)nc3)CC4)C[C@H]2C)n1 [Example 125, 2-(3,5-Dimethyl-[1,2,4]triazol-1-yl)-1-{(R)-2-methyl-4-[2-(2-trifluoromethyl-pyrimidin-5-yl)-1,2,3,4-tetrahydro-isoquinolin-8-yl]-piperazin-1-yl}-ethanone]	47.4
Cc1nc(C)n(CC(=O)N2CCN(c3cccc4c3CN(c3cnc(C5CC5)nc3)CC4)C[C@H]2C)n1 [Example 126, 1-{(R)-4-[2-(2-Cyclopropyl-pyrimidin-5-yl)-1,2,3,4-tetrahydro-isoquinolin-8-yl]-2-methyl-piperazin-1-yl}-2-(3,5-dimethyl-[1,2,4]triazol-1-yl)-ethanone]	3.98
CCOc1ncc(N2CCc3cccc(N4CCN(C(=O)Cn5nc(C)nc5C)[C@H](C)C4)c3C2)cn1 [Example 127, 2-(3,5-Dimethyl-[1,2,4]triazol-1-yl)-1-{(R)-4-[2-(2-ethoxy-pyrimidin-5-yl)-1,2,3,4-tetrahydro-isoquinolin-8-yl]-2-methyl-piperazin-1-yl}-ethanone]	33.1
CCOc1ncc(N2CCc3cccc(N4CCN(C(=O)Cn5nc(C)cc5C)[C@H](C)C4)c3C2)cn1 [Example 128, 2-(3,5-Dimethyl-pyrazol-1-yl)-1-{(R)-4-[2-(2-ethoxy-pyrimidin-5-yl)-1,2,3,4-tetrahydro-isoquinolin-8-yl]-2-methyl-piperazin-1-yl}-ethanone]	7.94
CCOc1ncc(N2CCc3c(F)ccc(N4CCN(C(=O)Cn5cnc6cccnc65)[C@H](C)C4)c3C2)cn1 [Example 129, 1-{(R)-4-[2-(2-Ethoxy-pyrimidin-5-yl)-5-fluoro-1,2,3,4-tetrahydro-isoquinolin-8-yl]-2-methyl-piperazin-1-yl}-2-imidazo[4,5-b]pyridin-3-yl-ethanone]	3.1
CCOc1ncc(N2CCc3c(F)ccc(N4CCN(C(=O)Cn5nc(C)cc5C)[C@H](C)C4)c3C2)cn1 [Example 130, 2-(3,5-Dimethyl-pyrazol-1-yl)-1-{(R)-4-[2-(2-ethoxy-pyrimidin-5-yl)-5-fluoro-1,2,3,4-tetrahydro-isoquinolin-8-yl]-2-methyl-piperazin-1-yl}-ethanone]	5.7
CCOc1ncc(N2CCc3c(F)ccc(N4CCN(C(=O)Cn5nc(C)nc5C)[C@H](C)C4)c3C2)cn1 [Example 131, 2-(3,5-Dimethyl-[1,2,4]triazol-1-yl)-1-{(R)-4-[2-(2-ethoxy-pyrimidin-5-yl)-5-fluoro-1,2,3,4-tetrahydro-isoquinolin-8-yl]-2-methyl-piperazin-1-yl}-ethanone]	24.3
Cc1nc(C)n(CC(=O)N2CCN(c3ccc(F)c4c3CN(c3cnc(C(F)(F)F)nc3)CC4)C[C@H]2C)n1 [Example 132, 2-(3,5-Dimethyl-[1,2,4]triazol-1-yl)-1-{(R)-4-[5-fluoro-2-(2-trifluoromethyl-pyrimidin-5-yl)-1,2,3,4-tetrahydro-isoquinolin-8-yl]-2-methyl-piperazin-1-yl}-ethanone]	58.9
Cc1nc(C)n(CC(=O)N2CCN(c3ccc(F)c4c3CN(c3cnc(C5CC5)nc3)CC4)C[C@H]2C)n1 [Example 133, 1-{(R)-4-[2-(2-Cyclopropyl-pyrimidin-5-yl)-5-fluoro-1,2,3,4-tetrahydro-isoquinolin-8-yl]-2-methyl-piperazin-1-yl}-2-(3,5-dimethyl-[1,2,4]triazol-1-yl)-ethanone]	5.42
CCOc1ncc(N2CCc3cc(C(F)(F)F)cc(N4CCN(C(=O)Cn5cnc6cccnc65)[C@H](C)C4)c3C2)cn1 [Example 134, 1-{(R)-4-[2-(2-Ethoxy-pyrimidin-5-yl)-6-trifluoromethyl-1,2,3,4-tetrahydro-isoquinolin-8-yl]-2-methyl-piperazin-1-yl}-2-imidazo[4,5-b]pyridin-3-yl-ethanone]	52.1
C[C@@H]1CN(c2cccc3c2CN(C(=O)OCc2ccccc2)CC3)CCN1C(=O)Cn1cccn1 [Example 135, 8-[(R)-3-Methyl-4-(2-pyrazol-1-yl-acetyl)-piperazin-1-yl]-3,4-dihydro-1H-isoquinoline-2-carboxylic acid benzyl ester]	116
Cc1nc(C)n(CC(=O)N2CCN(c3cccc4c3CN(C(=O)OCc3ccccc3)CC4)C[C@H]2C)n1 [Example 136, 8-{(R)-4-[2-(3,5-Dimethyl-[1,2,4]triazol-1-yl)-acetyl]-3-methyl-piperazin-1-yl}-3,4-dihydro-1H-isoquinoline-2-carboxylic acid benzyl ester]	33.2
O=C(Cn1cnc2cccnc21)N1CCN(c2cccc3c2CN(C(=O)OCc2ccccc2)CC3)CC1 [Example 137, 8-[4-(2-Imidazo[4,5-b]pyridin-3-yl-acetyl)-piperazin-1-yl]-3,4-dihydro-1H-isoquinoline-2-carboxylic acid benzyl ester]	9.1
O=C(Cn1ccc2cccnc21)N1CCN(c2cccc3c2CN(C(=O)OCc2ccccc2)CC3)CC1 [Example 138, 8-[4-(2-Pyrrolo[2,3-b]pyridin-1-yl-acetyl)-piperazin-1-yl]-3,4-dihydro-1H-isoquinoline-2-carboxylic acid benzyl ester]	12.4
Cn1c(=O)n(CC(=O)N2CCN(c3cccc4c3CN(C(=O)OCc3ccccc3)CC4)CC2)c2ccccc21 [Example 139, 8-{4-[2-(3-Methyl-2-oxo-2,3-dihydro-benzoimidazol-1-yl)-acetyl]-piperazin-1-yl}-3,4-dihydro-1H-isoquinoline-2-carboxylic acid benzyl ester]	21.7
Cn1c(=O)n(CC(=O)N2CCN(c3cccc4c3CN(C(=O)c3ccccc3)CC4)CC2)c2ccccc21 [Example 140, 1-{2-[4-(2-Benzoyl-1,2,3,4-tetrahydro-isoquinolin-8-yl)-piperazin-1-yl]-2-oxo-ethyl}-3-methyl-1,3-dihydro-benzoimidazol-2-one]	51.2
Cn1c(=O)n(CC(=O)N2CCN(c3cccc4c3CN(C(=O)Cc3ccccc3)CC4)CC2)c2ccccc21 [Example 141, 1-Methyl-3-{2-oxo-2-[4-(2-phenylacetyl-1,2,3,4-tetrahydro-isoquinolin-8-yl)-piperazin-1-yl]-ethyl}-1,3-dihydro-benzoimidazol-2-one]	190
O=C(Cn1cnc2cccnc21)N1CCN(c2cccc3c2CN(S(=O)(=O)Cc2ccccc2)CC3)CC1 [Example 142, 2-Imidazo[4,5-b]pyridin-3-yl-1-[4-(2-phenylmethanesulfonyl-1,2,3,4-tetrahydro-isoquinolin-8-yl)-piperazin-1-yl]-ethanone]	65.4
C[C@@H]1CN(c2cccc3c2CN(Cc2ccc(Cl)cc2)CC3)CCN1C(=O)Cn1cnc2cccnc21 [Example 143, 1-{(R)-4-[2-(4-Chloro-benzyl)-1,2,3,4-tetrahydro-isoquinolin-8-yl]-2-methyl-piperazin-1-yl}-2-imidazo[4,5-b]pyridin-3-yl-ethanone]	465
C[C@@H]1CN(c2ccc(Br)c3c2CN(C(=O)OCc2ccccc2)CC3)CCN1C(=O)Cn1cnc2cccnc21 [Example 144, 5-Bromo-8-[(R)-4-(2-imidazo[4,5-b]pyridin-3-yl-acetyl)-3-methyl-piperazin-1-yl]-3,4-dihydro-1H-isoquinoline-2-carboxylic acid benzyl ester]	85.7
C[C@@H]1CN(c2ccc(C(F)(F)F)c3c2CN(C(=O)OCc2ccccc2)CC3)CCN1C(=O)Cn1cnc2cccnc21 [Example 145, 8-[(R)-4-(2-Imidazo[4,5-b]pyridin-3-yl-acetyl)-3-methyl-piperazin-1-yl]-5-trifluoromethyl-3,4-dihydro-1H-isoquinoline-2-carboxylic acid benzyl ester]	25.6
C[C@@H]1CN(c2ccc(C#N)c3c2CN(C(=O)OCc2ccccc2)CC3)CCN1C(=O)Cn1cnc2cccnc21 [Example 146, 5-Cyano-8-[(R)-4-(2-imidazo[4,5-b]pyridin-3-yl-acetyl)-3-methyl-piperazin-1-yl]-3,4-dihydro-1H-isoquinoline-2-carboxylic acid benzyl ester]	15.6
